Converted amounts (≈) assume the structure as drawn.
How the values were obtained:
[1] = tested on: Wild-type P. aeruginosa PAO1; assay: Broth microdilution MIC, wild-type P. aeruginosa PAO1; assay type: cell-based; conditions: Pseudomonas aeruginosa; wild-type P. aeruginosa PAO1, 37° C., 18 h; read-out: PAO1 WT MIC
Protocol: (§1) Exemplary compounds from the above Examples were tested to determine their minimum inhibitory concentration (MIC) for exemplary strains of Escherichia and Pseudomonas bacteria using broth microdilution methods. Assay procedures and results are described below.
(§2) Broth microdilution assays were conducted according to Clinical and Laboratory Standards Institute guidelines (CLSI, M07-A^11: Clinical and Laboratory Standards Institute. Methods for Dilution Antimicrobial Susceptibility Tests for Bacteria that Grow Aerobically; Approved Standard-11th Edition. Wayne, PA: CLSI, 2018). Briefly, bacterial suspensions were adjusted to a density equivalent to a 0.5 McFarland standard and diluted in sterile, cation-adjusted Mueller-Hinton broth (Beckton Dickinson) to yield a final inoculum between 2×10^5 and 8×10^5 colony-forming units (CFU)/mL. An inoculum volume of 98 μL was added to wells containing 2 μL of 2-fold serial dilutions of drug (prepared in DMSO). All inoculated microdilution trays were incubated in ambient air at 37° C. for 18 h. […] Performance of the assay was monitored by the use of laboratory quality-control strains (S. aureus ATCC 29213 and P. aeruginosa ATCC 27853) and levofloxacin, a compound with a defined MIC spectrum, in accordance with CLSI guidelines (CLSI, M100Ed29: Clinical and Laboratory Standards Institute. Performance Standards for Antimicrobial Susceptibility Testing, 29th Edition. Wayne, PA: CLSI, 2018).
(§3) Multiple enterobacteriaceae strains were tested, including both wild-type strains and multi-drug resistance pump deficient mutants. Specific strains tested included the following: • Wild-type P. aeruginosa PAO1, • P. aeruginosa PAO1 ΔmexABoprM—Disabled multi-drug efflux system Δ(MexAB-OprM), • P. aeruginosa PAO397—PAO1Δ(mexAB-oprM) Δ(mexCD-oprJ) Δ(mexEF-oprN) Δ(mexJK) Δ(mexXY) ΔopmH, • P. aeruginosa LESB58—Clinical isolate; colistin-resistant, isolated in the United Kingdom in 1988 from a patient with cystic fibrosis • E. coli JW0452-3 (BW25113 JacrA::kan)—Disabled multi-drug efflux system (AcrAB-TolC).
(§4) Experimental results are provided in Table 11, which provides MIC values for wild-type P. aeruginosa PAO1 (“PAO1 WT MIC”), P. aeruginosa PAO ΔmexABoprM (“PAO1 KO MIC”), P. aeruginosa PAO397 (“PAO397 KO MIC”), P. aeruginosa LESB58 (“LESB58”), and E. coli JW0452-3 (BW25113 JacrA::kan) (“E. coli KO MIC”).

P. aeruginosa LESB58 = assay: Broth microdilution MIC, P. aeruginosa LESB58; assay type: cell-based; conditions: Pseudomonas aeruginosa; P. aeruginosa LESB58 clinical isolate, colistin-resistant, 37° C., 18 h
Protocol: as §1, §2, §3, §4

P. aeruginosa PAO397 = assay: Broth microdilution MIC, P. aeruginosa PAO397; assay type: cell-based; conditions: Pseudomonas aeruginosa, PAO397, 18 h, read-out: PAO397 KO MIC
Protocol: as §1, §2, §3, §4

[2] = molecular target: T1, recombinant LpxA enzyme (P. aeruginosa) (Pseudomonas aeruginosa, UniProt Q9X6P4); assay: LpxA in vitro substrate acylation assay with RapidFire MS analysis (P. aeruginosa); assay type: biochemical; conditions: P. aeruginosa enzyme 0.5 nM, PaACP-C10, 30 min
T1 sequence (Q9X6P4 1-258): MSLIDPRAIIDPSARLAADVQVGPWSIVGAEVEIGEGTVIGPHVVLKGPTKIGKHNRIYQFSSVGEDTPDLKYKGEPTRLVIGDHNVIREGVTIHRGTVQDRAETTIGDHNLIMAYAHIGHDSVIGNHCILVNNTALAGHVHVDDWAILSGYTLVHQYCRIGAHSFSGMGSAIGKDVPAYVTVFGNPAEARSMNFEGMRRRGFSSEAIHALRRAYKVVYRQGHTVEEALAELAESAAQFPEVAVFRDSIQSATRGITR
Protocol: Exemplary compounds from the above Examples were tested for ability to inhibit LpxA activity using an in vitro substrate acylation assay with RapidFire™ MS analysis. Assay procedures and results are described below.
Reactions were carried out in a final volume of 30 μL with 25 mM HEPES (pH 7.3), 150 mM NaCl, 2 mM DTT, 0.01% BSA, 5 μM UDP-GlcNac, recombinant LpxA enzyme (0.5 nM P. aeruginosa or 1.0 nM E. coli, both produced at Evotec), 0.5 μM acyl-transfer reagent (decanoyl P. aeruginosa acyl-carrier protein [PaACP-C10] or myristoyl E. coli acyl-carrier protein [EcACP-C1-4], both produced at Evotec), and 1% DMSO containing test compound. After 30 min incubation at room temperature, reactions were stopped by addition of 30 μL of 10% TCA in water.
Samples were centrifuged (4350 rpm, 4° C., 5 min), and then subjected to RapidFire™ MS analysis on an Agilent RapidFire 300 coupled to an Agilent 6460 triple-quadrupole mass spectrometer. Analytes were retained on a C4 (type A) cartridge using the following solvents and flow rates: • Pump 1—H2O with 5 mM NH4OAc at 2.0 mL/min, • Pump 2—MeOH/H2O (90/10) at 1.5 mL/min, • Pump 3—MeOH/H2O (90/10) at 0.5 mL/min, and • Pump 4—ACN (organic)/H2O (aqueous). Substrate and product of the reaction were detected in negative mode ESI-MS/MS by MRM (multiple reaction monitoring) of transitions 606.0/385.0 (UDP-GlcNAc substrate) and 776.2/385.0 (UDP-3-O—(R-3-hydroxydecanoyl)-GlcNAc product, for P. aeruginosa LpxA assay) or 832.2/385.0 (UDP-3-O—(R-3-hydroxymyristoyl)-GlcNAc product, for E. coli LpxA assay).
For IC50 determinations, peak areas of the substrate and product were compared to compute the proportion of product formed by the LpxA enzyme at each compound concentration.

Compound	MIC [1]	MIC (P. aeruginosa LESB58)	MIC (P. aeruginosa PAO397)	IC50 [2]
CCc1c(F)cc(F)cc1OC(C)C(=O)N(Cc1nnc(N)o1)Cc1ccc(C#N)cc1F (single isomer, unassigned) [Compound No. 100]	1 to 16 µg/mL (≈ 2.18 to 34.8 µM)	1 to 16 µg/mL (≈ 2.18 to 34.8 µM)		
N#Cc1ccc(CN(CC(=O)NC2COC2)C(=O)CSc2ccccc2Cl)cc1 [Compound No. 1, 2-[[2-(2-Chlorophenyl)sulfanylacetyl]-[(4-cyanophenyl)methyl]amino]-N-(oxetan-3-yl)acetamide]			1 to 16 µg/mL (≈ 2.33 to 37.2 µM)	
NCc1ccc(CN(Cc2nnc(N)o2)C(=O)CSc2ccccc2Cl)cc1 [Compound No. 61, N-[[4-(Aminomethyl)phenyl]methyl]-N-[(5-amino-1,3,4-oxadiazol-2-yl)methyl]-2-(2-chlorophenyl)sulfanyl-acetamide]	> 64 µg/mL		16 to 64 µg/mL (≈ 38.3 to 153 µM)	> 1000 nM
N#Cc1ccc(CN(CC(=O)NC2CCNCC2)C(=O)CSc2ccccc2Cl)cc1 [compound 4]	> 64 µg/mL		16 to 64 µg/mL (≈ 35 to 140 µM)	
N#Cc1ccc(CN(Cc2nnc(N)o2)C(=O)COc2ccccc2Cl)cn1 [compound 17]	> 64 µg/mL		1 to 16 µg/mL (≈ 2.51 to 40.1 µM)	
N#Cc1ccc(CN(C(=O)CSc2ccccc2Cl)C2(c3nnc(N)o3)CC2)cc1 [compound 22]	> 64 µg/mL		1 to 16 µg/mL (≈ 2.27 to 36.4 µM)	
N#Cc1ccc(CN(C(=O)CSc2ccccc2Cl)C2(c3nnc(N)o3)CC2)c(F)c1 [compound 23]	> 64 µg/mL		1 to 16 µg/mL (≈ 2.18 to 34.9 µM)	20 to 100 nM
N#Cc1ccc(CN(Cc2cc[nH]n2)C(=O)CSc2ccccc2Cl)cc1 [compound 49]	> 64 µg/mL		1 to 16 µg/mL (≈ 2.52 to 40.3 µM)	100 to 1000 nM
N#Cc1ccc(CN(Cc2cn[nH]c2)C(=O)CSc2ccccc2Cl)cc1 [compound 50]	> 64 µg/mL		1 to 16 µg/mL (≈ 2.52 to 40.3 µM)	100 to 1000 nM
CC(C)c1ccccc1OCC(=O)N(Cc1ccc(C#N)cc1)Cc1nnc(N)o1 [compound 53]	> 64 µg/mL		1 to 16 µg/mL (≈ 2.47 to 39.5 µM)	
N#Cc1ccc(CN(Cc2ccc3cn[nH]c3c2)C(=O)CSc2ccccc2Cl)cc1 [compound 71]	> 64 µg/mL			> 1000 nM
Cc1ncc(CN(Cc2ccc(C#N)cc2)C(=O)CSc2ccccc2Cl)[nH]1 [compound 75]	> 64 µg/mL		1 to 16 µg/mL (≈ 2.43 to 38.9 µM)	
[2H]C([2H])(Oc1cc(F)cc(F)c1C([2H])([2H])C([2H])([2H])[2H])C(=O)N(Cc1nnc(N)o1)Cc1ccc(C#N)cc1F [compound 77, N-[(5-amino-1,3,4-oxadiazol-2-yl)methyl]-N-[(4-cyano-2-fluoro-phenyl)methyl]-2,2-dideuterio-2-[3,5-difluoro-2-(1,1,2,2,2-pentadeuterioethyl)phenoxy]acetamide]	1 to 16 µg/mL (≈ 2.21 to 35.4 µM)	1 to 16 µg/mL (≈ 2.21 to 35.4 µM)		
CCc1c(F)cc(F)cc1OCC(=O)N(Cc1nnc(N)o1)Cc1ccc(S(N)(=O)=O)cc1F [compound 79, N-[(5-Amino-1,3,4-oxadiazol-2-yl)methyl]-2-(2-ethyl-3,5-difluoro-phenoxy)-N-[(2-fluoro-4-sulfamoyl-phenyl)methyl]acetamide]	1 to 16 µg/mL (≈ 2 to 32 µM)	1 to 16 µg/mL (≈ 2 to 32 µM)		
Nc1nnc(CN(Cc2ccc(S(N)(=O)=O)cc2F)C(=O)COc2cc(F)cc(F)c2C2CC2)o1 [compound 80]	16 to 64 µg/mL (≈ 31.3 to 125 µM)	1 to 16 µg/mL (≈ 1.96 to 31.3 µM)		
N#Cc1ccc(CN(Cc2nnc(N)o2)C(=O)COc2cc(F)cc(F)c2C2CC2)c(F)c1 [compound 81]	16 to 64 µg/mL (≈ 35 to 140 µM)	1 to 16 µg/mL (≈ 2.19 to 35 µM)		
[2H]C([2H])(Oc1cc(F)cc(F)c1C([2H])([2H])C([2H])([2H])[2H])C(=O)N(Cc1ccc(C#N)nc1)Cc1nnc(N)o1 [compound 82]	> 64 µg/mL	16 to 64 µg/mL (≈ 36.7 to 147 µM)		

Compound	MIC [1]	MIC (P. aeruginosa LESB58)	MIC (P. aeruginosa PAO397)	IC50 [2]
N#Cc1ccc(CN(Cc2nnc(N)o2)C(=O)COc2cc(F)cc(F)c2C2CC2)cn1 [compound 85]	> 64 µg/mL	16 to 64 µg/mL (≈ 36.3 to 145 µM)		
CCc1ccccc1SCC(=O)N(CC(=O)NC)Cc1ccc(-n2cncn2)cc1 [compound 90]	> 64 µg/mL			100 to 1000 nM
CNC(=O)CN(Cc1ccc(-n2cncn2)cc1)C(=O)CSc1ccccc1Cl [compound 91]	> 64 µg/mL			
C[C@@H](Sc1cc(F)cc(F)c1Cl)C(=O)N(Cc1nnc(N)o1)Cc1ccc(C#N)cc1F [compound 98]	> 64 µg/mL	> 64 µg/mL		
N#Cc1ccc(CN(Cc2nnc(N)o2)C(=O)/C=C/c2ccccc2Cl)c(F)c1 [compound 99]	> 64 µg/mL	> 64 µg/mL		
CCc1c(F)cc(F)cc1O[C@@H](C)C(=O)N(Cc1nnc(N)o1)Cc1ccc(C#N)cc1F [compound 101]	> 64 µg/mL	> 64 µg/mL		
C[C@H](Sc1cc(F)cc(F)c1Cl)C(=O)N(Cc1nnc(N)o1)Cc1ccc(C#N)cc1F [compound 103]	> 64 µg/mL	> 64 µg/mL		
[2H]C([2H])(Oc1cc(F)cc(F)c1C([2H])([2H])C([2H])([2H])[2H])C(=O)N(Cc1nnc(N)o1)Cc1ccc(S(N)(=O)=O)cc1F [compound 111, N-[(5-Amino-1,3,4-oxadiazol-2-yl)methyl]-2,2-dideuterio-2-[3,5-difluoro-2-(1,1,2,2,2-pentadeuterioethyl)phenoxy]-N-[(2-fluoro-4-sulfamoyl-phenyl)methyl]acetamide]	16 to 64 µg/mL (≈ 31.6 to 126 µM)	1 to 16 µg/mL (≈ 1.97 to 31.6 µM)		
[2H]CC([2H])c1c(F)cc(F)cc1OCC(=O)N(Cc1nnc(N)o1)Cc1ccc(C#N)cc1F (stereo not shown) [compound 112]	1 to 16 µg/mL (≈ 2.24 to 35.8 µM)	1 to 16 µg/mL (≈ 2.24 to 35.8 µM)		
[2H]C([2H])C([2H])([2H])c1ccccc1OCC(=O)N(Cc1nnc(N)o1)Cc1ccc(C#N)cc1F [compound 113]	> 64 µg/mL	16 to 64 µg/mL (≈ 38.7 to 155 µM)		
[2H]C([2H])(Oc1ccccc1C([2H])([2H])C([2H])([2H])[2H])C(=O)N(Cc1nnc(N)o1)Cc1ccc(C#N)cc1F [compound 114]	> 64 µg/mL	16 to 64 µg/mL (≈ 38.4 to 154 µM)		
N#Cc1ccc(CN(Cc2nnc(N)o2)C(=O)CSc2cc(CN)ccc2Cl)cn1 [compound 115]	> 64 µg/mL			
C[C@H](Oc1ccccc1Cl)C(=O)N(Cc1ccc(C#N)cc1)Cc1nnc(N)o1 [compound 117]				> 1000 nM
N#Cc1ccc(CN(Cc2nnc(N)o2)C(=O)CSc2ccccc2CC(F)(F)F)c(F)c1 [compound 118]	> 64 µg/mL	> 64 µg/mL		
NCCOc1ccc(Cl)c(SCC(=O)N(Cc2ccc(C(N)=O)c(C(=O)O)c2)Cc2nnc(N)o2)c1 [compound 119]				> 1000 nM
Nc1nnc(CN(Cc2ccc(S(N)(=O)=O)cc2)C(=O)COc2cc(F)cc(F)c2Cl)o1 [compound 120]	> 64 µg/mL	16 to 64 µg/mL (≈ 32.8 to 131 µM)		
N#Cc1ccc(CN(Cc2nnc(N)o2)C(=O)COc2ccc(F)cc2Cl)c(F)c1 [compound 121]	> 64 µg/mL	> 64 µg/mL		

Reference: patent US20240166612A1, “ARYLTHIOETHER ACETAMIDE AND RELATED COMPOUNDS AND THEIR USE IN TREATING MEDICAL CONDITIONS” (X-Biotix Therapeutics, Inc., priority 2021, published 2024)
